Patent publication US20180036289A1 (Gilead Sciences, Inc., priority 2016, published 2018)

Columns and labels:
786-O = assay: Cell proliferation assay (ATPlite), drug with vs without cobicistat; format: cell-based; conditions: 786-O cell line; 120 hours incubation
Experimental: (§1) All cell lines were obtained from the American Type Culture Collection (ATCC) Manassas, Va. (US). Master and working cell banks (MCB and WCB) were prepared by subculturing in ATCC-recommended media and freezing protocols (www.atcc.org). Cell line stocks for the assays were prepared from the WCB. The MCB, WCBs and assay stocks were prepared within respectively 3, 6 and 9 passages of the ATCC vial.
(§2) Solid powders of reference compounds were weighed on a calibrated balance and dissolved in 100% DMSO. DMSO samples were stored at room temperature. At the day of the experiment, the compound stock was diluted in 3.16 fold steps in 100% DMSO to obtain a 9-point dilution series. This was further diluted 31.6 times in 20 mM sterile Hepes buffer pH 7.4. A volume of 5 μl was transferred to the cells to generate a test concentration range from 3.16×10^−5M to 3.16×10^−9 M in duplicate. The final DMSO concentration during incubation was […] in all wells.
(§3) An assay stock was thawed and diluted in its ATCC recommended medium and dispensed in a 384-well plate, depending on the cell line used, at a concentration of 200-3200 cells per well in 45 μl medium. For each used cell line the optimal cell density is used. The margins of the plate were filled with phosphate-buffered saline. Plated cells were incubated in a humidified atmosphere of 5% CO2 at 37° C. After 24 hours, 5 μl of compound dilution was added and plates were further incubated for another 120 hours. After 120 hours, 25 μl of ATPlite 1Step™ (PerkinElmer) solution was added to each well, and subsequently shaken for 2 minutes. After 10 minutes of incubation in the dark, the luminescence was recorded on an Envision multimode reader (PerkinElmer).
(§4) IC50s were calculated by non-linear regression using IDBS XLfit 5. The percentage growth after 120 h (%-growth) was calculated as follows: 100%×(luminescencet=120h/luminescenceuntreated,t=120h). This was fitted to the ^10log compound concentration (conc) by a 4-parameter logistics curve: %−growth=bottom+(top−bottom)/(1+10^(log IC50-conc)*hill)), where hill is the Hill-coefficient, and bottom and top the asymptotic minimum and maximum cell growth that the compound allows in that assay.

A-427 = assay: as above; format: cell-based; conditions: A-427 cell line; 120 hours incubation
Experimental: as §1, §2, §3, §4

A-498 = assay: as above; format: cell-based; conditions: A-498 cell line; 120 hours incubation
Experimental: as §1, §2, §3, §4

A-549 = assay: as above; format: cell-based; conditions: A-549 cell line; 120 hours incubation
Experimental: as §1, §2, §3, §4

A-704 = assay: as above; format: cell-based; conditions: A-704 cell line; 120 hours incubation
Experimental: as §1, §2, §3, §4

A375 = assay: as above; format: cell-based; conditions: A375 cell line; 120 hours incubation
Experimental: as §1, §2, §3, §4

ACHN = assay: as above; format: cell-based; conditions: ACHN cell line; 120 hours incubation
Experimental: as §1, §2, §3, §4

AN3 CA = assay: as above; format: cell-based; conditions: AN3 CA cell line; 120 hours incubation
Experimental: as §1, §2, §3, §4

AU-565 = assay: as above; format: cell-based; conditions: AU-565 cell line; 120 hours incubation
Experimental: as §1, §2, §3, §4

BxPC-3 = assay: as above; format: cell-based; conditions: BxPC-3 cell line; 120 hours incubation
Experimental: as §1, §2, §3, §4

CAL 27 = assay: as above; format: cell-based; conditions: CAL 27 cell line; 120 hours incubation
Experimental: as §1, §2, §3, §4

CCRF-CEM = assay: as above; format: cell-based; conditions: CCRF-CEM cell line; 120 hours incubation
Experimental: as §1, §2, §3, §4

DU 145 = assay: as above; format: cell-based; conditions: DU 145 cell line; 120 hours incubation
Experimental: as §1, §2, §3, §4

DoTc2 4510 = assay: as above; format: cell-based; conditions: DoTc2 4510 cell line; 120 hours incubation
Experimental: as §1, §2, §3, §4

K-562 = assay: as above; format: cell-based; conditions: K-562 cell line; 120 hours incubation
Experimental: as §1, §2, §3, §4

KU812 = assay: as above; format: cell-based; conditions: KU812 cell line; 120 hours incubation
Experimental: as §1, §2, §3, §4

LNCaP FGC = assay: as above; format: cell-based; conditions: LNCaP FGC cell line; 120 hours incubation
Experimental: as §1, §2, §3, §4

LoVo = assay: as above; format: cell-based; conditions: LoVo cell line; 120 hours incubation
Experimental: as §1, §2, §3, §4

MCF7 = assay: as above; format: cell-based; conditions: MCF7 cell line; 120 hours incubation
Experimental: as §1, §2, §3, §4

MeWo = assay: as above; format: cell-based; conditions: MeWo cell line; 120 hours incubation
Experimental: as §1, §2, §3, §4

NCI-H82 = assay: as above; format: cell-based; conditions: NCI-H82 cell line; 120 hours incubation
Experimental: as §1, §2, §3, §4

RPMI-7951 = assay: as above; format: cell-based; conditions: RPMI-7951 cell line; 120 hours incubation
Experimental: as §1, §2, §3, §4

RT4 = assay: as above; format: cell-based; conditions: RT4 cell line; 120 hours incubation
Experimental: as §1, §2, §3, §4

SK-N-AS = assay: as above; format: cell-based; conditions: SK-N-AS cell line; 120 hours incubation
Experimental: as §1, §2, §3, §4

SNU-C2B = assay: as above; format: cell-based; conditions: SNU-C2B cell line; 120 hours incubation
Experimental: as §1, §2, §3, §4

SR = assay: as above; format: cell-based; conditions: SR cell line; 120 hours incubation
Experimental: as §1, §2, §3, §4

SW620 = assay: as above; format: cell-based; conditions: SW620 cell line; 120 hours incubation
Experimental: as §1, §2, §3, §4

T24 = assay: as above; format: cell-based; conditions: T24 cell line; 120 hours incubation
Experimental: as §1, §2, §3, §4

VA-ES-BJ = assay: as above; format: cell-based; conditions: VA-ES-BJ cell line; 120 hours incubation
Experimental: as §1, §2, §3, §4

TT = TT cell line; 120 hours incubation
Experimental: as §1, §2, §3, §4

CC(=O)O[C@H]1C(=O)[C@@]2(C)[C@H]([C@H](OC(=O)c3ccccc3)[C@]3(O)C[C@H](OC(=O)[C@H](O)[C@@H](NC(=O)c4ccccc4)c4ccccc4)C(C)=C1C3(C)C)[C@]1(OC(C)=O)CO[C@@H]1C[C@@H]2O [paclitaxel]
Fold change in IC50 (IC50 [Drug + Cobicistat]/IC50 [Drug]) (786-O): 3.0 fold
Fold change in IC50 (IC50 [Drug + Cobicistat]/IC50 [Drug]) (A-427): 1.2 fold
Fold change in IC50 (IC50 [Drug + Cobicistat]/IC50 [Drug]) (A-498): 2.8 fold
Fold change in IC50 (IC50 [Drug + Cobicistat]/IC50 [Drug]) (A-549): 1.0 fold
Fold change in IC50 (IC50 [Drug + Cobicistat]/IC50 [Drug]) (A-704): 1.5 fold
Fold change in IC50 (IC50 [Drug + Cobicistat]/IC50 [Drug]) (A375): 2.3 fold
Fold change in IC50 (IC50 [Drug + Cobicistat]/IC50 [Drug]) (ACHN): 2.5 fold
Fold change in IC50 (IC50 [Drug + Cobicistat]/IC50 [Drug]) (AN3 CA): 2.9 fold
Fold change in IC50 (IC50 [Drug + Cobicistat]/IC50 [Drug]) (AU-565): 2.7 fold
Fold change in IC50 (IC50 [Drug + Cobicistat]/IC50 [Drug]) (BxPC-3): 3.2 fold
Fold change in IC50 (IC50 [Drug + Cobicistat]/IC50 [Drug]) (CAL 27): 2.0 fold
Fold change in IC50 (IC50 [Drug + Cobicistat]/IC50 [Drug]) (CCRF-CEM): 2.6 fold
Fold change in IC50 (IC50 [Drug + Cobicistat]/IC50 [Drug]) (DU 145): 4.8 fold
Fold change in IC50 (IC50 [Drug + Cobicistat]/IC50 [Drug]) (DoTc2 4510): 3.4 fold
Fold change in IC50 (IC50 [Drug + Cobicistat]/IC50 [Drug]) (K-562): 2.4 fold
Fold change in IC50 (IC50 [Drug + Cobicistat]/IC50 [Drug]) (KU812): 4.6 fold
Fold change in IC50 (IC50 [Drug + Cobicistat]/IC50 [Drug]) (LNCaP FGC): 2.5 fold
Fold change in IC50 (IC50 [Drug + Cobicistat]/IC50 [Drug]) (LoVo): 1.3 fold
Fold change in IC50 (IC50 [Drug + Cobicistat]/IC50 [Drug]) (MCF7): 3.3 fold
Fold change in IC50 (IC50 [Drug + Cobicistat]/IC50 [Drug]) (MeWo): 2.0 fold
Fold change in IC50 (IC50 [Drug + Cobicistat]/IC50 [Drug]) (NCI-H82): 2.4 fold
Fold change in IC50 (IC50 [Drug + Cobicistat]/IC50 [Drug]) (RPMI-7951): 2.9 fold
Fold change in IC50 (IC50 [Drug + Cobicistat]/IC50 [Drug]) (RT4): 3.7 fold
Fold change in IC50 (IC50 [Drug + Cobicistat]/IC50 [Drug]) (SK-N-AS): 2.3 fold
Fold change in IC50 (IC50 [Drug + Cobicistat]/IC50 [Drug]) (SNU-C2B): 3.0 fold
Fold change in IC50 (IC50 [Drug + Cobicistat]/IC50 [Drug]) (SR): 1.8 fold
Fold change in IC50 (IC50 [Drug + Cobicistat]/IC50 [Drug]) (SW620): 1.8 fold
Fold change in IC50 (IC50 [Drug + Cobicistat]/IC50 [Drug]) (T24): 4.4 fold
Fold change in IC50 (IC50 [Drug + Cobicistat]/IC50 [Drug]) (VA-ES-BJ): 2.8 fold
Fold change in IC50 (IC50 [Drug + Cobicistat]/IC50 [Drug]) (TT): 3.0 fold
